Reference: paper PMC12203311, “Design, synthesis, in silico and in vitro evaluation of pyrrole–indole hybrids as dual tubulin and aromatase inhibitors with potent anticancer activities” (RSC Advances, 2025)
Like-named read-outs stand apart in the source and are kept apart here.

Legend:
OVCAR-5 = experiment: NCI60 five-dose screen; assay type: cell-based; conditions: Homo sapiens, OVCAR-5, ovarian cancer; for CC50: read-out: LC50 (the source's name)
NCI-H522 = experiment: NCI60 five-dose screen; assay type: cell-based; conditions: Homo sapiens, NCI-H522, NSC lung cancer; for CC50: read-out: LC50 (the source's name)
MDA-MB-435 = experiment: NCI60 five-dose screen; assay type: cell-based, human; conditions: for CC50: read-out: LC50 (the source's name)
K-562 = experiment: NCI60 five-dose screen; assay type: cell-based; conditions: Homo sapiens, K562, K-562, leukemia; for CC50: read-out: LC50 (the source's name)
HT29 = experiment: NCI60 five-dose screen; assay type: cell-based; conditions: Homo sapiens, HT-29, HT29, colon cancer; for CC50: read-out: LC50 (the source's name)
RPMI-8226 = experiment: NCI60 five-dose screen; assay type: cell-based; conditions: Homo sapiens, RPMI-8226, leukemia; for CC50: read-out: LC50 (the source's name)
NCI-H460 = experiment: NCI60 five-dose screen; assay type: cell-based; conditions: Homo sapiens, NCI-H460, NSC lung cancer; for CC50: read-out: LC50 (the source's name)
NCI-H226 = experiment: NCI60 five-dose screen; assay type: cell-based; conditions: Homo sapiens, NCI-H226, NSC lung cancer; for CC50: read-out: LC50 (the source's name)
ACHN = experiment: NCI60 five-dose screen; assay type: cell-based; conditions: Homo sapiens, renal cancer; for CC50: read-out: LC50 (the source's name)
CAKI-1 = experiment: NCI60 five-dose screen; assay type: cell-based; conditions: Homo sapiens, CAKI-1, renal cancer; for CC50: read-out: LC50 (the source's name)
HCC-2998 = experiment: NCI60 five-dose screen; assay type: cell-based; conditions: Homo sapiens, HCC-2998, colon cancer; for CC50: read-out: LC50 (the source's name)
CCRF-CEM = experiment: NCI60 five-dose screen; assay type: cell-based; conditions: Homo sapiens, leukemia; for CC50: read-out: LC50 (the source's name)
SNB-19 = experiment: NCI60 five-dose screen; assay type: cell-based; conditions: Homo sapiens, SNB-19, CNS cancer; for CC50: read-out: LC50 (the source's name)
SK-MEL-5 = experiment: NCI60 five-dose screen; assay type: cell-based, human; conditions: Homo sapiens; for CC50: SK-MEL-5, SK-MEL-5, melanoma, read-out: LC50 (the source's name); for GI50: SK-MEL-5, melanoma
786-0 = experiment: NCI60 five-dose screen; assay type: cell-based; conditions: Homo sapiens, 786-0, renal cancer; for CC50: read-out: LC50 (the source's name)
UACC-257 = experiment: NCI60 five-dose screen; assay type: cell-based; conditions: Homo sapiens, UACC-257, melanoma; for CC50: read-out: LC50 (the source's name)
OVCAR-4 = experiment: NCI60 five-dose screen; assay type: cell-based; conditions: Homo sapiens, OVCAR-4, ovarian cancer; for CC50: read-out: LC50 (the source's name)
DU-145 = experiment: NCI60 five-dose screen; assay type: cell-based; conditions: Homo sapiens, DU-145, prostate cancer; for CC50: read-out: LC50 (the source's name)
OVCAR-8 = experiment: NCI60 five-dose screen; assay type: cell-based; conditions: Homo sapiens, OVCAR-8, ovarian cancer; for CC50: read-out: LC50 (the source's name)
LOX IMVI = experiment: NCI60 five-dose screen; assay type: cell-based; conditions: Homo sapiens, melanoma; for CC50: read-out: LC50 (the source's name)
SNB-75 = experiment: NCI60 five-dose screen; assay type: cell-based; conditions: Homo sapiens, SNB-75, CNS cancer; for CC50: read-out: LC50 (the source's name)
HCT-116 = experiment: NCI60 five-dose screen; assay type: cell-based; conditions: Homo sapiens, HCT-116, colon cancer; for CC50: read-out: LC50 (the source's name)
Human CYP19 (aromatase) = molecular target: T1, Human CYP19 (aromatase) (Homo sapiens, UniProt P11511); experiment: Aromatase inhibition assay (DBF fluorometric substrate); assay type: biochemical; conditions: active defined as IC50 < 12.5 µM
T1 construct: purchased GENTEST, Woburn, MA 456260; host or cells: baculovirus/insect cells
T1 sequence (P11511 1-503): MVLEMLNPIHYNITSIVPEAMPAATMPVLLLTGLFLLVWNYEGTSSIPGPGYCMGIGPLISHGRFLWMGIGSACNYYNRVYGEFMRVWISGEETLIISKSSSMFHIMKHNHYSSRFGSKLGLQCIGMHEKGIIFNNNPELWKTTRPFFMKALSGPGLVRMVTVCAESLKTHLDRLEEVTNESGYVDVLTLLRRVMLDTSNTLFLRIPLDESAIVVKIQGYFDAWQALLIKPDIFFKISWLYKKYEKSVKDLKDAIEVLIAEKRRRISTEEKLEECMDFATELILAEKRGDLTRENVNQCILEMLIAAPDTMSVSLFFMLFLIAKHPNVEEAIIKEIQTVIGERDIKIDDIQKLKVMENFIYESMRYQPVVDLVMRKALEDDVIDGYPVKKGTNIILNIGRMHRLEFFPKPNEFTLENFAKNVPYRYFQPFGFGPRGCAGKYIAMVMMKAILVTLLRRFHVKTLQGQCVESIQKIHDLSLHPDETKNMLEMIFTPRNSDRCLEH
Procedure, shortened: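 Insect-cell-expressed human CYP19 Supersomes with oxidoreductase turned over DBF for 30 min at 37 °C after a 10 min 37 °C pre-incubation with cofactor. NaOH quench; product measured by fluorescence, excitation 490 nm, emission 530 nm.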

[1] = Homo sapiens, MDA-MB-435, MDA-MB-435, melanoma
[2] = Homo sapiens, MDA-MB-435, melanoma

`CCc1cc[nH]c1/C=N/NC(=O)c1[nH]c2ccc(Br)cc2c1-c1ccccc1` [Derivative 3u, (E)-5-Bromo-N′-((3-ethyl-1H-pyrrol-2-yl)methylene)-3-phenyl-1H-indole-2-carbohydrazide] was tested, and the GI50 (OVCAR-5) was 6.77 µM, the CC50 (OVCAR-5) was 45.4 µM and the GI50 (NCI-H522) was 2.3 µM. The CC50 (NCI-H522) was 34.1 µM, the CC50 (MDA-MB-435; [1]) was 41.6 µM and the GI50 (MDA-MB-435; [2]) was 4.12 µM. It also gave a GI50 (K-562) of 2.27 µM, a CC50 (K-562) of 56.2 µM and a GI50 (HT29) of 2.17 µM. It also gave a CC50 (HT29) of 39.3 µM, a GI50 (RPMI-8226) of 2.04 µM and a CC50 (RPMI-8226) of 78.6 µM. For the same molecule, the GI50 (NCI-H460) was 1.23 µM, the CC50 (NCI-H460) was 36.7 µM and the GI50 (NCI-H226) was 1.97 µM. For the same molecule, the CC50 (NCI-H226) was 37.7 µM, the GI50 (ACHN) was 3.27 µM and the CC50 (ACHN) was 36.7 µM. It also gave a GI50 (CAKI-1) of 6.04 µM, a CC50 (CAKI-1) of 45.3 µM and a GI50 (HCC-2998) of 4.11 µM. For the same molecule, the CC50 (HCC-2998) was 42.4 µM, the GI50 (CCRF-CEM) was 2.35 µM and the CC50 (CCRF-CEM) was 63.8 µM. It also gave a GI50 (SNB-19) of 4.5 µM, a CC50 (SNB-19) of 42.2 µM and a CC50 (SK-MEL-5) of 27.2 µM. For the same molecule, the GI50 (SK-MEL-5) was 2.54 µM, the GI50 (786-0) was 3.51 µM and the CC50 (786-0) was 44.3 µM. The GI50 (UACC-257) was 3.78 µM, the CC50 (UACC-257) was 40.8 µM and the GI50 (OVCAR-4) was 3.33 µM. For the same molecule, the CC50 (OVCAR-4) was 43.7 µM, the GI50 (DU-145) was 4.3 µM and the CC50 (DU-145) was 42.3 µM. The GI50 (OVCAR-8) was 3.02 µM, the CC50 (OVCAR-8) was 39.8 µM and the GI50 (LOX IMVI) was 2.42 µM. For the same molecule, the CC50 (LOX IMVI) was 32.3 µM, the GI50 (SNB-75) was 4.94 µM and the CC50 (SNB-75) was 43.4 µM. For the same molecule, the GI50 (HCT-116) was 2.5 µM, the CC50 (HCT-116) was 44 µM and the IC50 (Human CYP19 (aromatase)) was 9.6 ± 1 µM.
`CCOC(=O)c1cc(/C=N/NC(=O)c2[nH]c3ccc(Br)cc3c2-c2ccccc2)c[nH]1` [Derivative 3v, Ethyl (E)-4-((2-(5-bromo-3-phenyl-1H-indole-2-carbonyl)hydrazono)methyl)-1H-pyrrole-2-carboxylate] gave a GI50 (OVCAR-5) of 3.49 µM, a CC50 (OVCAR-5) of 37.4 µM and a GI50 (NCI-H522) of 2.41 µM. The CC50 (NCI-H522) was 61.2 µM, the CC50 (MDA-MB-435; [1]) was 9.35 µM and the GI50 (MDA-MB-435; [2]) was 1.54 µM. It also gave a CC50 (MDA-MB-435; MDA-MB-435, melanoma) of 9.53 µM, a GI50 (K-562) of 4.59 µM and a CC50 (K-562) of over 100 µM. For the same molecule, the GI50 (HT29) was 3.33 µM, the CC50 (HT29) was 35.3 µM and the GI50 (RPMI-8226) was 3.84 µM. It also gave a CC50 (RPMI-8226) of over 100 µM, a GI50 (NCI-H460) of 3.49 µM and a CC50 (NCI-H460) of 34.3 µM. It also gave a GI50 (NCI-H226) of 4.21 µM, a CC50 (NCI-H226) of 46.2 µM and a GI50 (ACHN) of 4.87 µM. For the same molecule, the CC50 (ACHN) was 49.9 µM, the GI50 (CAKI-1) was 3.2 µM and the CC50 (CAKI-1) was 40.2 µM. For the same molecule, the GI50 (HCC-2998) was 4.17 µM, the CC50 (HCC-2998) was 42.1 µM and the GI50 (CCRF-CEM) was 3.7 µM. For the same molecule, the CC50 (CCRF-CEM) was over 100 µM, the GI50 (SNB-19) was 4.08 µM and the CC50 (SNB-19) was 43.4 µM. The CC50 (SK-MEL-5) was 17.9 µM, the GI50 (SK-MEL-5) was 2.01 µM and the GI50 (786-0) was 6.01 µM. It also gave a CC50 (786-0) of 53.3 µM, a GI50 (UACC-257) of 11.7 µM and a CC50 (UACC-257) of 77.8 µM. It also gave a GI50 (OVCAR-4) of 9 µM, a CC50 (OVCAR-4) of 52.8 µM and a GI50 (DU-145) of 3.36 µM. For the same molecule, the CC50 (DU-145) was 33.4 µM, the GI50 (OVCAR-8) was 3.65 µM and the CC50 (OVCAR-8) was 38.5 µM. For the same molecule, the GI50 (LOX IMVI) was 4.31 µM, the CC50 (LOX IMVI) was 41.1 µM and the GI50 (SNB-75) was 1.95 µM. The CC50 (SNB-75) was 90.6 µM, the GI50 (HCT-116) was 3.42 µM and the CC50 (HCT-116) was 50.5 µM. It also gave an IC50 (Human CYP19 (aromatase)) of 2.5 ± 0.6 µM.
